Here are results for 38 compounds from ChEMBL document CHEMBL1201862, “PubChem BioAssay data set” (2004).

A word on the EC50: it is the concentration that produces a half-maximal response. The IC50 is the concentration at which inhibition is half-maximal. By AC50 is commonly meant the concentration giving half of the maximal activity seen.

Each structure is given as a SMILES string. The source made the active and inactive calls.

Assay [1] relates to H4. Description: Luminescence Cell-Based Dose Response HTS to Identify Activators of 5'UTR Stem-Loop Driven Prion Protein mRNA Translation in H4 Neuroglioblastoma Cells. [Related pubchem assays: 1829 (Project Summary), 1814 (Primary HTS)]. Type of assay: functional. Conditions: Homo sapiens.
A short description of assay [2]: Luminescence Cell-Based Dose Response HTS to Identify Activators of Luciferase Translation or Activity in H4 […] Cells. [Related pubchem assays: 1829 (Project Summary), 1814 (Primary HTS)]. Type of assay: functional.
Assay [3] relates to Streptococcus sp. 'group A'. Nature of the assay: growth inhibition of control SK(-) GAS strain, dose response, counter-screen for streptokinase expression inhibitor project, luminescence, kanamycin, BacTiterGlo, confirmation (AID 1900). Type of assay: functional, organism-based. (In general: Counterscreens check selectivity or assay interference.)
Assay [4] relates to Streptococcus. Description: Group A Streptococcus viability loss, dose response, counter-screen for streptokinase expression inhibitor project, luminescence, BacTiterGlo (AID 1915).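 Also: potency for reduction of bacterial viability or growth.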 Format: functional, organism-based.
The nature of assay [5]: cells. Type of assay: functional.
The target of assay [6] is T1, RNA-binding protein pos-1 (Caenorhabditis elegans, UniProt G5EF15).
T1 sequence (G5EF15 whole entry): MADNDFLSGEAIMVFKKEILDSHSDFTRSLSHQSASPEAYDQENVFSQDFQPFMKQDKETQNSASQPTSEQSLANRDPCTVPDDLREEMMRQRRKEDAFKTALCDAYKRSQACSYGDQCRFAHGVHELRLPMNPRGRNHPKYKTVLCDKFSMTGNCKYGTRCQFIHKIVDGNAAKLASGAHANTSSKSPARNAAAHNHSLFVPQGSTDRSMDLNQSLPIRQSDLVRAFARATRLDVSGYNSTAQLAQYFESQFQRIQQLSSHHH
Description: inhibitors of POS-1/mex-3 RNA binding, dose response, biochemical, fluorescence polarization (AID 1964).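 Also: purified POS-1 fused to maltose binding protein made in E. coli; potency of compounds blocking POS-1 binding to fluorescent RNA.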

Assay [7] deals with T2, Zinc finger protein mex-5 (Caenorhabditis elegans, UniProt Q9XUB2).
T2 sequence (Q9XUB2 whole entry): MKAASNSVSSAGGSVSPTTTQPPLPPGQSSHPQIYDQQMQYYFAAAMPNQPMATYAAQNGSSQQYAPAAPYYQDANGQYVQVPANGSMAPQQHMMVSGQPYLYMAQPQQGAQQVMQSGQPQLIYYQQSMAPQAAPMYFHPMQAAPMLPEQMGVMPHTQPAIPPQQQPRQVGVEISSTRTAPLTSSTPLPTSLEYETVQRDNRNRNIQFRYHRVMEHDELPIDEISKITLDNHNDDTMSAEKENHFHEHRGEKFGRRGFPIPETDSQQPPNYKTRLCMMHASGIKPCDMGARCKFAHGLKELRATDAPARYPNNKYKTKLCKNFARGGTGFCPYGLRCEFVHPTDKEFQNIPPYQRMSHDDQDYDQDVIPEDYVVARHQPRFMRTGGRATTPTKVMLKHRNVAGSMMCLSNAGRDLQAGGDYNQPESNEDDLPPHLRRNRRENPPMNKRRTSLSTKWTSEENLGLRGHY
Nature of the assay: MEX-5/TCR-2 RNA interaction inhibitors, dose response, biochemical, C. elegans, fluorescence polarization (AID 1960). On the technique in general: Fluorescence polarisation rises when a labelled molecule tumbles more slowly, as on binding a larger partner.

For assay [8], the target named is T3, Cytochrome P450 1A2 (Homo sapiens, UniProt P05177).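 Also: PubChem cytochrome P450 panel assay, CYP1A2 panel member.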
T3 sequence (P05177 whole entry): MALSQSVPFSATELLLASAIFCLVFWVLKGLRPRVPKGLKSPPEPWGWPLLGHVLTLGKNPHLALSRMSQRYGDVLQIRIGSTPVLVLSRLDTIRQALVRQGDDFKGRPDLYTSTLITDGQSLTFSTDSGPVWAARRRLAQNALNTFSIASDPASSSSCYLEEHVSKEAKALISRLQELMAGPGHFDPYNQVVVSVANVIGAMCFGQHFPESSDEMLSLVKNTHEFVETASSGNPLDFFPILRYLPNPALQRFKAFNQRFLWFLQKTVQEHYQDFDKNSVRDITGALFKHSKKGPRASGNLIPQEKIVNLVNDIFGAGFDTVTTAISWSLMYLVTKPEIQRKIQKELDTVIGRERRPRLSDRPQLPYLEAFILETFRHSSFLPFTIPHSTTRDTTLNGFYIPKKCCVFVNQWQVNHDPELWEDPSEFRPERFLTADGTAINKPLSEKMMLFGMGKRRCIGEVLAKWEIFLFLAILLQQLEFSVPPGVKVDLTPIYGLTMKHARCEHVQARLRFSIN

Assay [9] has as its target T4, Heat shock factor protein 1 (Mus musculus, UniProt P38532).
T4 sequence (P38532 whole entry): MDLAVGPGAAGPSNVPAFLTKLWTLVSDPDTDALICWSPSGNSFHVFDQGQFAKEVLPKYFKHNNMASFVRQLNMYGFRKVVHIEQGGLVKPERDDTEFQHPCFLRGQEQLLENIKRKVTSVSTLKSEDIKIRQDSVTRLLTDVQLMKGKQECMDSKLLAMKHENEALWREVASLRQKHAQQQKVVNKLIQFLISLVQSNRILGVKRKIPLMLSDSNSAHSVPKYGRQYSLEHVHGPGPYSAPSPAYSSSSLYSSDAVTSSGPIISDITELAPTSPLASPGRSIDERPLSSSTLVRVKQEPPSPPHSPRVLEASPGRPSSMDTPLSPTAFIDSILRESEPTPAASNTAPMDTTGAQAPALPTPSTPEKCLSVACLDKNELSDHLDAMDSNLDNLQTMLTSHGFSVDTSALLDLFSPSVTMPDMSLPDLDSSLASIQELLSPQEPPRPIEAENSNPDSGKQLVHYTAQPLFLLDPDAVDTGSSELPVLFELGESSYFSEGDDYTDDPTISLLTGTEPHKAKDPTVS
Description: inhibition of MG132-induced HSE-luciferase signal, confirmation, cell-based, NIH3T3, luminescence, dose retest (AID 2382).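 Also: NIH3T3 fibroblasts with HSF1-driven luciferase reporter stressed by proteasome inhibitor MG132; luminescence from HSF1-driven luciferase expression after 8 hours of MG132 stress.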 Type of assay: functional.

For assay [10], the target named is Cytochrome P450 2C19 (Homo sapiens, UniProt P33261). Nature of the assay: Cytochrome panel assay with activity outcomes. Panel member name: p450-cyp2c19 Compounds with AC50 equal or less than 10 uM are considered active. Type of assay: functional. The settings on record: read-out: AC50.
Chain of Cytochrome P450 2C19 (P33261 whole entry): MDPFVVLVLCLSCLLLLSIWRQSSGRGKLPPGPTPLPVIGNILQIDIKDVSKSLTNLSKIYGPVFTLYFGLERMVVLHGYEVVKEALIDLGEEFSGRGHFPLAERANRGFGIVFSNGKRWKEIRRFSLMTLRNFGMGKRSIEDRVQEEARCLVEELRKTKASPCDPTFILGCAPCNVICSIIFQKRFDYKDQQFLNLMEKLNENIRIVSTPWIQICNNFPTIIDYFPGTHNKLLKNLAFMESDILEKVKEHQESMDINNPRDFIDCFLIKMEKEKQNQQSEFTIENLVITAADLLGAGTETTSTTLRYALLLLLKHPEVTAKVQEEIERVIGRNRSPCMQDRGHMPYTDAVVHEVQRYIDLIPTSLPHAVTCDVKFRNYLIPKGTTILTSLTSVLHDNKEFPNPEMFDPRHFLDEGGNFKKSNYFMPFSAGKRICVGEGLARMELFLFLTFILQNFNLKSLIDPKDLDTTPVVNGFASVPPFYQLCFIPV
The target in assay [11] is FAD-linked sulfhydryl oxidase ALR (Homo sapiens, UniProt P55789). Nature of the assay: inhibitors of human ALR sulfhydryl oxidase, dose response, biochemical, H2O2 detection, luminescence, cherry-pick (AID 493248).
Chain of FAD-linked sulfhydryl oxidase ALR (P55789 whole entry): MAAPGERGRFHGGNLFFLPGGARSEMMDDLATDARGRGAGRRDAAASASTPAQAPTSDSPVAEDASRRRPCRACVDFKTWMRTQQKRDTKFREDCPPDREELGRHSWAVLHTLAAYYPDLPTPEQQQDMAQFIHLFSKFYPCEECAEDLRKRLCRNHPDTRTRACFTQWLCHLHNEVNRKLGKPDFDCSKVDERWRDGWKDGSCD
The target of assay [12] is Cytochrome P450 2C9 (Homo sapiens, UniProt P11712).
Chain of Cytochrome P450 2C9 (P11712 whole entry): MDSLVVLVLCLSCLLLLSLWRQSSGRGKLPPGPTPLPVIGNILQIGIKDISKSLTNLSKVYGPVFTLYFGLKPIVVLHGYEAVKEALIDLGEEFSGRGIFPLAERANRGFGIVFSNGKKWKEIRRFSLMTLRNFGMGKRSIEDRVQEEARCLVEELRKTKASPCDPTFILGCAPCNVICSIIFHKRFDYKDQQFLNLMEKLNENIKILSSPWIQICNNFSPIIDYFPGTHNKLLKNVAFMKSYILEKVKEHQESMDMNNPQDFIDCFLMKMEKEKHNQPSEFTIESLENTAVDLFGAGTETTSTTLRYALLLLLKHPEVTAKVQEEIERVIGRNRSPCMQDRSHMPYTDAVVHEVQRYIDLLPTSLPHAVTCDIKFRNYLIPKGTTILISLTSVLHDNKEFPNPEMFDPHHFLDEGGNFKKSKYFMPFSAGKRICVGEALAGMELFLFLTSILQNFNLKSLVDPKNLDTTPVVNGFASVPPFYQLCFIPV
Assay [13] has as its target Cytochrome P450 2D6 (Homo sapiens, UniProt P10635).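 Also: CYP2D6 member of a cytochrome P450 panel assay.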

Chain of Cytochrome P450 2D6 (P10635 whole entry): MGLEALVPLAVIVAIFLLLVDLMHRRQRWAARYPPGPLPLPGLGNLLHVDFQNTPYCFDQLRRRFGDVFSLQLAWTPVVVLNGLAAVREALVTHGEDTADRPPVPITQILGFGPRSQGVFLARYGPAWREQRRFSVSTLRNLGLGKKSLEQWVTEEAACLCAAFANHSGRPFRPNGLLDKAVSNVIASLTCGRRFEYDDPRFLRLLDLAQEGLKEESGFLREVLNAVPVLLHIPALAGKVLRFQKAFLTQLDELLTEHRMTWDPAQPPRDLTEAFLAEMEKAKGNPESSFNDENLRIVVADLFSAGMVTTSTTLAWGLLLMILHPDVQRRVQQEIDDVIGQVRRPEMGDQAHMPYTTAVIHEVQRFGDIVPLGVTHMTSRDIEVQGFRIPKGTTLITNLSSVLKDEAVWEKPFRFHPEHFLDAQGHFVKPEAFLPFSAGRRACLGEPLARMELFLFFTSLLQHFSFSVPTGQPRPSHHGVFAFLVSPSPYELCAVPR

For `Cc1ccc(NC(=O)CCOc2ccccc2)cc1`, the EC50 in assay [1] is > 120 µM (not active); in [2] it was 92.6 µM (active). In the case of `Oc1cc(C(F)(F)F)nc2c(C(F)(F)F)cccc12`, the values for the EC50 in [3] and in assay [4] were 2.62 µM (active) and 8.27 µM (active), respectively. Also, in assay [5], the IC50 is 50 µM (active).

For the compound `O=C(Nc1nccs1)c1ccc(-c2ccc([N+](=O)[O-])cc2)o1`, the concentration giving a half-maximal response (EC50) in assay [6] was 12.3 µM (inconclusive); in [7], 6.66 µM (active).

With `CN/C(=N\c1ccc(C2=NNC(=O)C[C@@H]2C)cc1)NC#N`, the AC50 in assay [8] is 39.8 µM (inconclusive). As for `COc1ccccc1NC1=C(Cl)C(=O)N(C2CCCCC2)C1=O`, the EC50 in [9] was > 195 µM (not active). The same measure, in the same setting: the same measure for `CC(C)Oc1ccc(/C=C(/NC(=O)c2ccccc2)C(=O)NCCC(=O)O)cc1`: > 195 µM (not active). Turning to `CCNc1ncc2nc(-c3cn(C)c4ccccc34)c(=O)n(Cc3cccc(OC)c3)c2n1`, in assay [8], the AC50 was 12.6 µM (inconclusive).

As to `CCOc1cc2c(cc1/C=C(/C#N)c1ccc(C(=O)O)cc1)OCO2`, the EC50 in assay [6] and in assay [7] was > 300 µM (not active) in each case.

`O=C(c1ccco1)N1CCC2(CCCN(C(c3ccccc3)c3ccccc3)C2)CC1`: the AC50 was 39.8 µM (inconclusive) in assay [10] and 15.8 µM (inconclusive) in [8]. On to `O=C(NCc1cccs1)c1ccccc1[N+](=O)[O-]`, for which, in assay [9], the EC50 is given as > 195 µM (not active). As to `COC(=O)[C@H](Cc1ccccc1)NC(=O)N1CCN(c2ccccc2)CC1`, in assay [11], the half-maximal activity concentration (AC50) was 6.26 µM (active). As to `CCOC(=O)C(=O)NC12CC3CC(CC(C3)C1)C2`, in assay [5], the IC50 is 44.5 µM (active). For the compound `CCOC(=O)c1c(NC(=O)CCC(=O)N2CCOCC2)sc2c1CC(C)(C)OC2`, the AC50 is 0.00562 µM (inconclusive) in assay [12], 0.224 µM (inconclusive) in [10] and 15.8 µM (inconclusive) in assay [8]. With `Cn1cnc2cc(NCc3ccc(Cl)cc3)ccc21`, the AC50 in assay [11] is 5.49 µM (active).

As for `COc1cc(C)cc2c(-c3c(O)cc(O)c4c3C[C@H](C)N[C@@H]4C)cc(-c3cc(-c4c(O)cc(O)c5c4C[C@H](C)N[C@@H]5C)c4cc(C)cc(OC)c4c3O)c(O)c12`, the AC50 was 0.2 µM (inconclusive) in assay [8] and 5.01 µM (inconclusive) in [13]. Regarding `O=C(OCc1cccc([N+](=O)[O-])c1)c1ccc2ccccc2n1`, in assay [5], the IC50 was 5.04 µM (active). For `CCCc1cc(=O)oc2cc(C)cc(OCC(=O)NCCCn3ccnc3)c12`, the EC50 in assay [9] is listed as > 195 µM (not active). In the case of `COc1ccc(-c2nnn(CC(=O)N(CC(=O)NCCC(C)C)Cc3cccs3)n2)cc1OC`, the values for the AC50 in assay [12] and in assay [8] were 7.08 µM (inconclusive) and 31.6 µM (inconclusive), respectively. For the compound `CC(NC(=O)c1ccc(N2CCCC2)c([N+](=O)[O-])c1)c1ccc(S(N)(=O)=O)cc1` (stereo not given), in assay [11], the AC50 was 3.51 µM (active).

As for `COc1ccc(Oc2ncc3ncc(=O)n(CCc4ccccc4)c3n2)cc1`, the AC50 in assay [8] was 0.631 µM (inconclusive). Consider `COc1ccc(N2CCN(C(=O)Cc3cccs3)CC2)cc1`, for which the AC50 in assay [11] is 2.36 µM (active). As for `COc1ccc(C2(CNC(=O)/C=C/c3ccco3)CCCC2)cc1OC`, the AC50 in assay [12] is 10 µM (inconclusive); in [8] it was 22.4 µM (inconclusive). For `CCOC(=O)c1cc(-c2csc(COc3ccccc3Cl)n2)on1`, the IC50 in assay [5] is 0.4 µM (active). Still for that read-out and setting: the same measure for `Cc1ccccc1C(=O)Nc1nnc(-c2ccco2)o1`: 5.71 µM (active); for `O=[N+]([O-])c1ccc(CN2CCN(c3ccccc3Cl)CC2)o1`: 0.84 µM (active). As for `O=[N+]([O-])c1ccc(SCCc2ccncc2)cc1`, the EC50 in assay [9] is > 195 µM (not active). Regarding `Cc1cccc(NC(=O)c2cccc(N3C(=O)C4C5CCC(C5)C4C3=O)c2)c1C` (stereo not given), the figures for the AC50 in assay [12] and in assay [8] were 22.4 µM (inconclusive) and 25.1 µM (inconclusive), respectively. With `Cc1ccc(C(=O)N/C(=C/c2ccco2)C(=O)Nc2cccc(C(=O)O)c2)cc1`, the EC50 in assay [9] is given as > 195 µM (not active). In the case of `CCC(C)Nc1nc2c(c(=O)n(C)c(=O)n2C)n1Cc1cccc(C)c1` (stereo not given), in assay [11], the AC50 is 8.61 µM (active). Regarding `O=C(CN1CCN(S(=O)(=O)c2ccc(F)cc2)CC1)Nc1ccc2c(c1)OCO2`, the AC50 is 11.2 µM (inconclusive) in [12], 3.98 µM (inconclusive) in assay [10], 25.1 µM (inconclusive) in [8] and 5.01 µM (inconclusive) in assay [13]. Take `COc1cc(/C=N/NC(=O)c2cccc([N+](=O)[O-])c2)cc(OC)c1O`: in assay [11], the AC50 was 2.04 µM (active).

`Cc1ccc(-c2nc(N/N=C/c3ccccc3[N+](=O)[O-])c3ccccc3n2)cc1`: the EC50 in [1] is 0.595 µM (active). Take `O=C(N/N=C/c1ccc2nccnc2c1)c1ccccc1O`: the EC50 is 44.2 µM (active) in assay [1] and 48.8 µM (active) in [2].

In the case of `C/C(=N/NC(=O)c1ccncc1)C1=C(O)CC(C)(C)CC1=O`, in assay [5], the half-maximal inhibitory concentration (IC50) was 5.71 µM (active). Regarding `COc1ccccc1N1CCN(C[C@@H](C(=O)NC(C)(C)C)c2ccccc2)CC1`, the figures for the AC50 in [8] and in assay [13] were 0.631 µM (inconclusive) and 20 µM (inconclusive), respectively. As to `N#CC1=C(N)n2c(s/c(=C\c3cccs3)c2=O)=C(C#N)C1c1cccs1` (stereo not given), the AC50 in assay [11] was 5.68 µM (active). As to `CN1CCc2cc(Cl)c(O)cc2[C@H](c2ccccc2)C1`, the AC50 in assay [8] was 31.6 µM (inconclusive). The same measure, in the same setting: then `CCCCCCCC/C=C\CCCCCCCC(=O)NCc1ccc(O)c(OC)c1` [OLVANIL], with 20 µM (inconclusive).
